SMILES	melting point [°C]
CCOC(=O)C(=CNc1cccc(C)n1)C(=O)OCC	102 to 104
CCCc1nc2c(N)nc3cc(OCCN(CCOc4ccc5c(c4)nc(N)c4nc(CCC)sc45)C(N)=O)ccc3c2s1	213 to 216
Clc1nc(N2CCOCC2)nc(N2CCOCC2)n1	174
CCC(OC)C1(OC)OC12CO2 (centres undefined)	68 to 70
CNC(=O)ON(Cc1ccc(OCc2ccccc2)cc1)C(C)=O	101 to 102
CC(C)CC1(C)C(=O)N(Cc2ccccc2)CCN1Cc1ccccc1 (centres undefined)	98 to 101
CC(C)(C)c1ccc(-c2c(-c3ccncc3)sc3nc(=O)cc(N)n23)cc1	259 to 262
CN(C(=O)c1ccc2nonc2c1)C1CCC1	51 to 52
CN(C(=O)N1CCN2C(=O)OC(c3ccccc3)(c3ccccc3)C2C1)c1ccccc1 (centres undefined)	146 to 147
CCOC(=O)Cc1sc(SCc2cc(O)nc(O)n2)nc1C	203 to 204
CCn1c(N)c(-c2nccn2COCC[Si](C)(C)C)c(=O)c2ccc(-c3ccc(C(C)C(=O)O)cc3)nc21 (centres undefined)	248
CN1CCC(O)(c2ccccc2F)CC1	127 to 129
CCOC(=O)Cc1csc(Nc2ccc(Cl)c(C(F)(F)F)c2)n1	148 to 150
C[Si](C)(C)CCCCOC(=O)CSc1cc(Oc2ccc(C(F)(F)F)cc2Cl)ccc1[N+](=O)[O-]	78 to 81
CCCCNC(=O)Oc1ccc2c(c1)c(C)cn2NCCCc1ccncc1F	83 to 84
Cc1c(NC(=O)c2ccc(OCc3cccc(F)c3)cc2)ccc2cc(CN3CCCC3)cnc12	151 to 152
COCC(=O)OC(CC1CC1)c1ccc(Cl)c2nc3n(c12)CCCN3c1ccc(Cl)cc1Cl (centres undefined)	159 to 161
COC(=O)C1COc2ccccc2C1 (centres undefined)	83 to 84
Cc1ccc(S(=O)(=O)NC[C@@H]2C[C@@H](S)CN2S(=O)(=O)c2ccc3ccccc3c2)cc1	175
c1cc2c(cc(-c3nnn[nH]3)c3nnnn32)s1	267 to 269
CCOC(=O)c1ccccc1OCNC(=O)CCCCCNC(=O)OC(C)(C)C	120 to 121
O=S1(=O)NN=Cc2ccsc21	125 to 127
CON=C(C(=O)N[C@@H]1C(=O)N[C@@H]1C(=O)N(C)C)c1csc(NC(=O)CCl)n1 (relative stereo)	160 to 165
COc1ccc2c(n1)c(CCNC(C)=O)c1n2CCCO1	92 to 93
C=C(C)C(=O)OC1c2nccnc2C(=O)N1c1ccc2ccc(Cl)nc2n1 (centres undefined)	255

SMILES	melting point [°C]
Cc1ccc2c(c1)C=Cc1cc(C)c(C)cc1C2c1cn(Cc2ccc(C(=O)O)o2)c(=O)[nH]c1=S (centres undefined)	292
CC(SC(=O)c1ccccc1)C(=O)NCCC(=O)O (centres undefined)	94 to 97
O=C(NC(CCc1ccccc1)c1nnc(NS(=O)(=O)c2ccccc2)o1)c1cccc2[nH]c(-c3ccncc3)nc12 (centres undefined)	220
CC(C)(C)C(=O)C(CC(=O)c1ccc(Cl)cc1)n1cncn1 (centres undefined)	116 to 119
O=C(O)c1c(O)c(-c2ccccc2)nc2ccccc12	206
COC(=O)C=Cc1ccc(-c2ccc(C=CC(=O)OC)cc2C(F)(F)F)c(C(F)(F)F)c1	158 to 161
Cc1cccc2c1C(=O)N(C)Cc1c(-c3noc(C4CC4)n3)ncn1-2	200
S=c1[nH]c2cccc(OCCNCc3cccc4ccccc34)c2[nH]1	191 to 193
CCCc1nn(C)c2c(=O)[nH]c(-c3cc(C(=O)CBr)ccc3OCC)nc12	159 to 160
N#Cc1cccnc1N1CCN(Cc2nc3ccccc3[nH]2)CC1	208 to 210
O=S(=O)(NS(=O)(=O)c1ccc(CCBr)cc1)c1ccccc1	148 to 150
Cc1nc2ccc(S(=O)(=O)c3cccc4cnccc34)cc2nc1C	198 to 200
COC(=O)CCc1ccc(CNC(=O)[C@@H]2Cc3ccccc3N2S(=O)(=O)c2ccc(C(C)(C)C)cc2)cc1	56
CSc1nc2ccc(C)cc2c2nn(-c3ccccc3)c(=O)n12	> 400
CC(=O)C1Oc2cc3c(cc2O1)=NC(F)(F)N=3	> 220
Cc1c[nH]c(C)c1C(C)(C)C	70 to 71
CCn1c(=O)c(Oc2ccc(F)cc2F)cc2cnc(S(C)(=O)=O)nc21	128 to 129
Fc1cc(F)c(C(Cl)(Cl)Cl)cc1C(Cl)(Cl)Cl	77 to 79
FC(F)(F)c1ccnc(Oc2ccc(CCNc3ncnc4nccnc34)cc2)c1	147 to 149
O=C(NC1=NN(c2ccc(Cl)c(Cl)c2)CC1)C(F)(F)F	181 to 183
O=C(NC(=O)c1ccc2ncccc2c1)NC1CCN(Cc2ccc3cc(F)ccc3c2)CC1	200 to 201
CN(Cc1ccccc1)Cc1ccc(N)cc1	48 to 50
CS(=O)(=O)c1ncc2c(n1)N(c1ccccc1)C(=O)N(c1ccccc1Cl)C2	186
COC(=O)c1ccc(NC(=O)C(N)c2ccc3c(c2)C(C)(C)CCC3(C)C)n1C (centres undefined)	143 to 144
CCOC(=O)/C=C/c1cc(-n2ncnn2)cc(C)c1N	162 to 165

SMILES	melting point [°C]
O=S1NC(CC2=Cc3ccccc3CC2)=NO1 (centres undefined)	118 to 120
COC(=O)c1sc2c(c1O)CSC2	133 to 137
CS(=O)(=O)c1ccc(C=Cc2ccc(OCCO)cc2)cc1	224 to 226
COc1c(C=C[N+](=O)[O-])cc2c(c1OC)CCC2	104
Cc1oc(-c2ccccc2)nc1C(O)COc1ccc(CCCC2OC(=O)NC2=O)cc1 (centres undefined)	146 to 147
O=C(O)Cc1ccc2c(c1)C(=O)Cc1cccnc1S2	212 to 214
CCC1CC(=O)N(Cc2ccc(C(=O)NC3CCCC3)cc2)N=C1c1ccc(OC)c(OC)c1 (centres undefined)	154
CCCCNS(=O)(=O)c1ccc(N2CCC(NC[C@H](O)c3ccc(O)c(NS(C)(=O)=O)c3)CC2)cc1	71 to 75
CN1CCN(c2ccc(N/C=C3\C(=O)NC(=O)c4ccc(C(=O)N(C)C)cc43)cc2)CC1	> 300
CCOC(=O)Nc1ccc(OC)cc1[N+](=O)[O-]	56 to 57
CC(=O)SCC(Cc1ccccc1)NC(=O)N1CCN(C)CC1 (single isomer, unassigned; (+))	78
CN(C)CCn1c(=O)c2cc([N+](=O)[O-])ccc2c2cnc3cc4c(cc3c21)OCO4	204 to 205
COc1cc(OC)c(C2=CCN(C)CC2)c(OC)c1	112 to 114
O=C(Oc1cccc2cnccc12)c1cc2ccccc2oc1=O	190 to 193
O=Cc1ccc2c(n1)C(=O)C(NC(=O)CCl)=CC2=O	190 to 192
O=S(=O)(Cl)c1c(Cl)sc(Cl)c1Cl	55
COc1cc(/C=C/C(=O)CC(=O)Cc2ccccc2)ccc1O	106
Cc1nc2c(OCc3ccccc3F)cccn2c1CO	151 to 153
COC1CCC(C2=C(O)C(=O)c3ccccc3C2=O)CC1 (centres undefined)	152 to 155
Cc1cc(-c2nc(-c3ccncc3)nn2C)cc(C)n1	176 to 178
COC(=O)c1ccccc1S(=O)COc1ccc(Cl)cc1Cl (centres undefined)	64 to 67
Cc1oc(-c2cccc(-c3nc(CC(=O)OCc4ccccc4)c(C)o3)c2)nc1CC(=O)OCc1ccccc1	98 to 100
CCCCn1c(=O)n(CCC)c(=O)c2c(N)n(CCCl)nc21	118 to 121
CCCc1nn(-c2ccc(C(F)(F)F)cn2)cc1/C=C/C(=O)OCC	104 to 105
CC(=O)c1cc(N2CCOCC2)ccc1NC(=O)c1cccc(OCc2ccccc2)c1	140 to 142

SMILES	melting point [°C]
Cc1cc(C2N(c3ccccc3)CCN2c2ccccc2)cc(C)c1O	166 to 167
O=C(O)CCCCCNS(=O)(=O)c1ccccc1	113 to 115
N#Cc1ccc(N2CC(C(=O)N3CCN(CC(=O)OCc4ccccc4)CC3)OC2=O)cc1 (centres undefined)	131 to 132
O=C(O)c1cc(CCCBr)ccc1O	68 to 73
CCCc1c(OCCCCCC(=O)c2ccc(OC)c(OC)c2)ccc(C(=O)OC)c1O	117 to 119
O=C1CCC(c2ccccc2)(c2ccccc2)C2CN(C(Cc3ccccc3)=NCc3cccc(F)c3)CC12 (centres undefined)	156
O=C(NC(Cc1ccc(OCc2ccccc2)cc1)C(=O)O)c1cn2c(-c3ccc(Cl)cc3)cccc2n1 (centres undefined)	218
O=C(O)CNC1Cc2ccccc2C1	211 to 214
O=c1[nH]c2cc(Cl)ccc2c(NCc2ccccc2)c1-c1ccccc1	179
Cc1cc(OC(C)c2ccc(-c3ccccc3-c3nnn(C(c4ccccc4)(c4ccccc4)c4ccccc4)n3)cc2)c2ccccc2n1 (centres undefined)	160 to 161
COc1cc2nc(N)nc(-c3cccc(O)c3)c2cc1OC	256 to 258
Nc1nc(N)c2cc(Oc3ccc(Cl)cc3)ccc2n1	226 to 228
CCOC(=O)CCNc1ncccc1NC(=O)c1ccccc1Cl	90 to 92
COc1ccc(C2CC(=O)N(Cc3ccc4ccc(Cl)cc4n3)C2)cc1OC1CCCC1 (centres undefined)	106 to 107
CC12Cc3cnn(-c4ccc(F)cc4)c3C=C1CCC1C2=CCCC1c1ccccn1 (centres undefined)	154 to 156
Cc1cccc(C)c1NC(=O)CN1CCNC(C)C1c1ncnc2sccc12 (centres undefined)	184 to 185
N#Cc1ccccc1N1CCN(CNC(=O)c2cccc(Cl)c2)CC1	143 to 146
O=C1COC(C#CC2CC2)(C(F)(F)F)c2cc(Cl)ccc2N1 (centres undefined)	200
O=c1c(Cl)c(C(F)(F)F)nc(Nc2cc(C(F)(F)F)ccc2C(F)(F)F)n1C1CCCCC1	181 to 183
CC(C)C(=O)N[C@@H](CS)C(=O)NCCSC(=O)C(C)C	125 to 127
CCC(C)c1cc2c(cc1O)CC[C@@H]1[C@@H]2CC[C@]2(C)C(=O)CC[C@@H]12 (some centres undefined)	186 to 187
CC(=NOCc1ccc(Cl)s1)C1=C(O)CC(C2CCCSC2)CC1=O (centres undefined)	154 to 155
O=C1c2cc(O)ccc2OC12CC2	180 to 185
COc1ccc(-c2cc3nccnc3[nH]2)cc1OCCO	203 to 205
